Test results taken from patent publication US20240277706A1, “METHODS AND COMPOSTITIONS FOR TARGETING PD-L1” (Aligos Therapeutics, Inc., priority 2023, published 2024).

Key:
PD-1/PD-L1 interaction = target: T1, PD-1/PD-L1 interaction (Homo sapiens, UniProt Q9NZQ7); assay: PD-1/PD-L1 NFAT Reporter Assay (Jurkat/CHO co-culture); format: cell-based; conditions: Jurkat cells overexpressing PD-1 with NFAT luciferase, co-culture with PD-L1 expressing CHO cells, 6 hrs at 37° C.
T1 construct: expressed in transfected cells; Jurkat cells (PD-1 and NFAT-luciferase)
T1 sequence (Q9NZQ7 19-290): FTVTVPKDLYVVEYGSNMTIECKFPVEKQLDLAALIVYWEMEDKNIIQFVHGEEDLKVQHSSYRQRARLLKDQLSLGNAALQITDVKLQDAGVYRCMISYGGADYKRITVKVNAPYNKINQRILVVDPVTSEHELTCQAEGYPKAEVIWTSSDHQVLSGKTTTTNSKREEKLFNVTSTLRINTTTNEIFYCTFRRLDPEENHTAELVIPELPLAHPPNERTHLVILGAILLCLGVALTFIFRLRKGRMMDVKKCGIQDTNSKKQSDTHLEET
Description: Blocking the PD-1/PD-L1 interaction will release the inhibitory signal and results in TCR signaling and NFAT-mediated luciferase activity.
CHO cells expressing surface-bound anti-CD3 antibodies and PD-L1 were first seeded overnight and treated with the compounds. Jurkat cells overexpressing PD-1 and a luciferase construct under NFAT promoter were then immediately seeded on the monolayer of CHO cells. The co-culture was then incubated for 6 hrs at 37° C. Luciferase activity was assessed by adding the ONE-Glo reagent and measuring luminescence with a plate reader. EC50 values were determined from the fit of the dose-response curves.

PD-1/PD-L1 = PD-1/PD-L1 (Homo sapiens, UniProt Q9NZQ7); assay: PDL1/PD1 Binding Assay; conditions: PDL1-6×His 0.3 nM, PD1-Fc-Avi-Biotin 2.5 nM, acceptor/donor beads, Envision reader; read-out: PD-1/PD-L1 PPI IC50
Chain of PD-1/PD-L1 (Q9NZQ7 19-238 limits assumed): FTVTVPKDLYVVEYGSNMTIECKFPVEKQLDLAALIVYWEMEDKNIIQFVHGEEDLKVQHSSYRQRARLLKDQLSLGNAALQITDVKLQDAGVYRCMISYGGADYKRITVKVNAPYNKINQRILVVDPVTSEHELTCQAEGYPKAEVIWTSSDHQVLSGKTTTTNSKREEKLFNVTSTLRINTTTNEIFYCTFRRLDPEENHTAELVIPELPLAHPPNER
Description: Compounds to be tested were serially diluted in DMSO, and further diluted in assay buffer (25 mM Hepes pH 7.4, 150 mM NaCl, 0.005% Tween 20, BSA 0.01%). Diluted compounds were added to the wells with final concentration of DMSO at 1%. PDL1-6×His protein was added to the wells, mixed well with compound. The plates were incubated for 30 min at room temperature. PD1-Fc-Avi-Biotin protein was added to the wells. Final concentration of PDL1 and PD1 protein is 0.3 nM and 2.5 nM, respectively. After a binding time of 30 min at room temperature, Anti-6×His Acceptor beads (final concentration 20 ug/ml) were added to the wells, and the incubation continued for 1 h. Streptavidin Donor beads (final concentration 20 ug/mL) were added at reduced light. The plates were sealed with foil and incubated in the dark for additional 1 h or overnight before reading on an Envision reader. The IC50 values were determined by fitting the curves using a four-parameter equation in Graphpad Prism 8.

Row | EC50 (PD-1/PD-L1 interaction) [µM] | IC50 (PD-1/PD-L1) [µM] | Jurkat NFAT EC50 (PD-1/PD-L1 interaction) | SMILES
1 | 0.01 to 0.1 | ≤ 0.01 |  | COc1nc(-c2cccc(-c3cccc(NC(=O)c4ccnn(C)c4=O)c3Cl)c2Cl)ccc1CN1CCC(C)(C(=O)O)CC1 [Compound C-96]
2 | 0.01 to 0.1 |  |  | COc1nc(-c2cccc(-c3cccc(NC(=O)c4ccnn(C)c4=O)c3Cl)c2Cl)ccc1CN1CCC(O)(C(=O)O)CC1 [Compound C-106]
3 | 0.01 to 0.1 | ≤ 0.01 |  | COc1nc(-c2cccc(-c3cccc(NC(=O)c4ccnn(C)c4=O)c3Cl)c2Cl)cnc1CN1CCC(C(=O)O)CC1 [Compound C-104]
4 | 0.01 to 0.1 | ≤ 0.01 |  | COc1nc(-c2cccc(-c3cccc(NC(=O)c4ccnn(C)c4=O)c3Cl)c2Cl)ccc1CN1CCC(C(=O)O)CC1 [Compound C-43]
5 |  | ≤ 0.01 | n.r | CCOC(=O)C1CCN(Cc2ccc(-c3cccc(-c4cccc(NC(=O)c5ccnn(C)c5=O)c4Cl)c3Cl)nc2OC)CC1 [Compound C-51]
6 | 0.01 to 0.1 | ≤ 0.01 |  | COc1nc(-c2cccc(-c3cccc(NC(=O)c4ccnn(C)c4=O)c3Cl)c2Cl)ccc1CN1CC(c2nnn[nH]2)C1 [Compound C-26]
7 | 0.01 to 0.1 | ≤ 0.01 |  | COc1nc(-c2cccc(-c3cccc(NC(=O)c4ccnn(C)c4=O)c3Cl)c2Cl)ccc1CN1CCC(OC)(C(=O)O)CC1 [Compound C-98]
8 | 0.01 to 0.1 | ≤ 0.01 |  | COc1nc(-c2cccc(-c3cccc(NC(=O)c4ccnn(C)c4=O)c3Cl)c2Cl)ccc1CN1CCC2(C(=O)O)CC2C1 (stereo not drawn) [Compound C-101]
9 | 0.01 to 0.1 | ≤ 0.01 |  | COc1nc(-c2cccc(-c3cccc(NC(=O)c4ccnn(C)c4=O)c3Cl)c2Cl)ccc1CN1CCC(c2nnn[nH]2)CC1 [Compound C-95]
10 | 0.01 to 0.1 | ≤ 0.01 |  | COc1nc(-c2cccc(-c3cccc(NC(=O)c4ccnn(C)c4=O)c3Cl)c2Cl)ccc1CN1C[C@@H]2[C@H](C1)[C@H]2C(=O)O [Compound C-100]
11 | 0.01 to 0.1 | ≤ 0.01 |  | COc1nc(-c2cccc(-c3cccc(NC(=O)c4ccnn(C)c4=O)c3C)c2Cl)cnc1CN1CCC(C(=O)O)CC1 [Compound C-105]
12 | 0.01 to 0.1 | ≤ 0.01 |  | COc1nc(-c2cccc(-c3cccc(NC(=O)c4ccnn(C)c4=O)c3C)c2Cl)ccc1CN1CCC(C(=O)O)CC1 [Compound C-103]
13 | 0.01 to 0.1 | ≤ 0.01 |  | CCOC(=O)C1CCN(Cc2ncc(-c3cccc(-c4cccc(NC(=O)c5ccnn(C)c5=O)c4Cl)c3Cl)nc2OC)CC1 [Compound C-107]
14 | 0.01 to 0.1 | ≤ 0.01 |  | COc1nc(-c2cccc(-c3cccc(NC(=O)c4ccnn(C)c4=O)c3Cl)c2Cl)ccc1CN1CCC(F)(C(=O)O)CC1 [Compound C-97]
15 | 0.1 to 1 |  |  | COc1nc(-c2cccc(-c3cccc(NC(=O)c4ccnn(C)c4=O)c3Cl)c2Cl)ccc1CN1CC2CCC(C1)C2C(=O)O (stereo not drawn) [Compound C-99]

Row | SMILES | EC50 (PD-1/PD-L1 interaction) [µM] | IC50 (PD-1/PD-L1) [µM] | Jurkat NFAT EC50 (PD-1/PD-L1 interaction)
16 | COc1nc(-c2cccc(-c3cccc(NC(=O)c4ccnn(C)c4=O)c3Cl)c2Cl)ccc1CN1CC2CC(C1)C2C(=O)O (stereo not drawn) [Compound C-102] | 0.01 to 0.1 | ≤ 0.01 | 
